In patent US20240376099A1, “COMPOUNDS AND COMPOSITIONS AS INHIBITORS OF ENDOSOMAL TOLL-LIKE RECEPTORS” (Novartis AG, priority 2016, published 2024) one finds IC50 data, which are given here for 21 compounds.

This assay has as its target T1, TLR7 (Homo sapiens, UniProt Q9NYK1).
T1 construct: Fresh blood was collected from normal human donors; endogenous in cells; host or cells: human PBMCs from fresh donor blood
T1 sequence (Q9NYK1 27-1049): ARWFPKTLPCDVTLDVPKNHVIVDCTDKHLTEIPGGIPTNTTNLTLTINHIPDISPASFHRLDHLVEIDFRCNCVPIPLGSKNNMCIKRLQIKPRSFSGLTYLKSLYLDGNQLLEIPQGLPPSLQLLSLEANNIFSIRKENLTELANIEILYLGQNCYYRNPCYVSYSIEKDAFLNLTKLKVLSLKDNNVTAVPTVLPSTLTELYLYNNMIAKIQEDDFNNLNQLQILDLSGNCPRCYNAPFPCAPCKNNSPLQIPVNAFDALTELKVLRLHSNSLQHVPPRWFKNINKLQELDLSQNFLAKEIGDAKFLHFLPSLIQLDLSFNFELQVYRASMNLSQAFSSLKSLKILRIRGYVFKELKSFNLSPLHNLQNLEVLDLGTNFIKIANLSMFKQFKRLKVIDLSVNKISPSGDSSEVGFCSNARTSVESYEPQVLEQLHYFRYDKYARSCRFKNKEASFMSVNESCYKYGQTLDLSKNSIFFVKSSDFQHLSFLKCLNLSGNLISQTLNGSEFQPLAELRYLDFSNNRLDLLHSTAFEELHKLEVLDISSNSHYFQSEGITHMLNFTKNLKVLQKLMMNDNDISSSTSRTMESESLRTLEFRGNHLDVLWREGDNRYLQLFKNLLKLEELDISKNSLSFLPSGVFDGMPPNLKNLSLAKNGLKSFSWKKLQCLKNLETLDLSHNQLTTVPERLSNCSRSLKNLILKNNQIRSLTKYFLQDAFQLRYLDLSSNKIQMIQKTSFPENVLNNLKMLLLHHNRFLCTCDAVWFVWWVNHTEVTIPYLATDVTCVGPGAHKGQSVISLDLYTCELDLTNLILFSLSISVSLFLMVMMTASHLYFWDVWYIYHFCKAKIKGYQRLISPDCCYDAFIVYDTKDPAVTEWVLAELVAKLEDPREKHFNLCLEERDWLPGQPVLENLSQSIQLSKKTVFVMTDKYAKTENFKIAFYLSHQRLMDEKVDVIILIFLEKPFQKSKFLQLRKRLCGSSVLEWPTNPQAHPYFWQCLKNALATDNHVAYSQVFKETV
Put plainly: huPBMC TLR7 Antagonist IFNα Assay. Format: cell-based. The settings on record: human PBMCs stimulated with ssRNA40 10 μg/mL (DOTAP), 14-16 hrs; IFNα2b AlphaLISA read-out. Summed up: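 Human PBMCs from fresh donor blood (150,000 cells/well) stimulated 14–16 h at 37 °C with DOTAP-complexed ssRNA40 (final 1 μg/ml for TLR8, 10 μg/mL for TLR7) or ODN2216 (final 0.3 μM, TLR9), 0.25% DMSO, ten-point 1/3 compound dilutions. Supernatant IL-6 read by HTRF (TLR8); IFNα by IFNα2b AlphaLISA (TLR7/TLR9).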
For orientation: In Alpha technology, singlet oxygen from a donor bead excites a nearby acceptor bead.
Usually IC50 stands for the concentration that gives 50% inhibition. As for `Cc1cc(N2CCc3c(c(C)nn3CC34CCC(N5CC[C@H](O)C5)(CC3)CC4)C2)c2cnn(C)c2n1` [compound 75, (S)-1-(4-((5-(1,6-dimethyl-1H-pyrazolo[3,4-b]pyridin-4-yl)-3-methyl-4,5,6,7-tetrahydro-1H-pyrazolo[4,3-c]pyridin-1-yl)methyl)bicyclo[2.2.2]octan-1-yl)pyrrolidin-3-ol], the half-inhibitory concentration (IC50) was determined as 11 nM. `Cc1cc(N2CCc3c(c(C)nn3CC34CCC(O)(CC3)CC4)C2)c2cnn(C)c2n1` [compound 46, 4-((5-(1,6-dimethyl-1H-pyrazolo[3,4-b]pyridin-4-yl)-3-methyl-4,5,6,7-tetrahydro-1H-pyrazolo[4,3-c]pyridin-1-yl)methyl)bicyclo[2.2.2]octan-1-ol]: the concentration for half-maximal inhibition (IC50) is 56 nM. Then `Cc1cc(N2CCc3c(c(C)nn3CC34CCC(NC(C)CO)(CC3)CC4)C2)c2cnn(C)c2n1` (stereo not drawn) [compound 56, 2-((4-((5-(1,6-dimethyl-1H-pyrazolo[3,4-b]pyridin-4-yl)-3-methyl-4,5,6,7-tetrahydro-1H-pyrazolo[4,3-c]pyridin-1-yl)methyl)bicyclo[2.2.2]octan-1-yl)amino)propan-1-ol], with 7 nM; and `CCOCCNC12CCC(Cn3nc(C)c4c3CCN(c3cc(C)nc5c3cnn5C)C4)(CC1)CC2` [compound 71, 4-((5-(1,6-dimethyl-1H-pyrazolo[3,4-b]pyridin-4-yl)-3-methyl-4,5,6,7-tetrahydro-1H-pyrazolo[4,3-c]pyridin-1-yl)methyl)-N-(2-ethoxyethyl)bicyclo[2.2.2]octan-1-amine], with 5 nM. Then `Cc1cc(N2CCc3c(c(C)nn3CC34CCC(N(C)C5CCC5)(CC3)CC4)C2)c2cnn(C)c2n1` [compound 79, N-cyclobutyl-4-((5-(1,6-dimethyl-1H-pyrazolo[3,4-b]pyridin-4-yl)-3-methyl-4,5,6,7-tetrahydro-1H-pyrazolo[4,3-c]pyridin-1-yl)methyl)-N-methylbicyclo[2.2.2]octan-1-amine], with 4 nM. Then `Cc1cc(N2CCc3c(c(C)nn3CC34CCC(NC(=O)OC5(C)CC5)(CC3)CC4)C2)c2cnn(C)c2n1` [Compound No. 51, 1-methylcyclopropyl (4-((5-(1,6-dimethyl-1H-pyrazolo[3,4-b]pyridin-4-yl)-3-methyl-4,5,6,7-tetrahydro-1H-pyrazolo[4,3-c]pyridin-1-yl)methyl)bicyclo[2.2.2]octan-1-yl)carbamate], with 7 nM. For the compound `Cc1cc(N2CCc3c(c(C)nn3CC34CCC(N5CCC5)(CC3)CC4)C2)c2cnn(C)c2n1` [compound 64, 1-((4-(azetidin-1-yl)bicyclo[2.2.2]octan-1-yl)methyl)-5-(1,6-dimethyl-1H-pyrazolo[3,4-b]pyridin-4-yl)-3-methyl-4,5,6,7-tetrahydro-1H-pyrazolo[4,3-c]pyridine], the IC50 stood at 4 nM.

In the case of `Cc1cc(N2CCc3c(c(C)nn3CCC34CCC(N)(CC3)CC4)C2)c2cnn(C)c2n1` [compound 91, 4-(2-(5-(1,6-dimethyl-1H-pyrazolo[3,4-b]pyridin-4-yl)-3-methyl-4,5,6,7-tetrahydro-1H-pyrazolo[4,3-c]pyridin-1-yl)ethyl)bicyclo[2.2.2]octan-1-amine], the IC50 turned out to be 22 nM.

For the compound `COc1ccc(Cn2ncc3c(N4CCc5c(c(C)nn5CC56CCC(N)(CC5)CC6)C4)cc(C)nc32)cc1` [Compound No. 53, 4-((5-(1-(4-methoxybenzyl)-6-methyl-1H-pyrazolo[3,4-b]pyridin-4-yl)-3-methyl-4,5,6,7-tetrahydro-1H-pyrazolo[4,3-c]pyridin-1-yl)methyl)bicyclo[2.2.2]octan-1-amine], the half-inhibitory concentration (IC50) is 843 nM. Then `Cc1cc(N2CCc3c(c(C)nn3CC34CCC(N)(CC3)CC4)C2)c2ccnc(C)c2n1` [compound 92, 4-((5-(2,8-dimethyl-1,7-naphthyridin-4-yl)-3-methyl-4,5,6,7-tetrahydro-1H-pyrazolo[4,3-c]pyridin-1-yl)methyl)bicyclo[2.2.2]octan-1-amine], with 160 nM; and `Cc1cc(N2CCc3c(c(C)nn3CC34CCC(N5C[C@H](O)[C@@H](O)C5)(CC3)CC4)C2)c2cnn(C)c2n1` [compound 80, (3S,4S)-1-(4-((5-(1,6-dimethyl-1H-pyrazolo[3,4-b]pyridin-4-yl)-3-methyl-4,5,6,7-tetrahydro-1H-pyrazolo[4,3-c]pyridin-1-yl)methyl)bicyclo[2.2.2]octan-1-yl)pyrrolidine-3,4-diol], with 2 nM; and `Cc1cc(N2CCc3nn(CC45CC(N)(C4)C5)c(C)c3C2)c2cnn(C)c2n1` [compound 52, 3-((5-(1,6-dimethyl-1H-pyrazolo[3,4-b]pyridin-4-yl)-3-methyl-4,5,6,7-tetrahydro-2H-pyrazolo[4,3-c]pyridin-2-yl)methyl)bicyclo[1.1.1]pentan-1-amine], with 304 nM. Then `CNC12CCC(Cn3nc(C)c4c3CCN(c3cc(C)nc5c3cnn5C)C4)(CC1)CC2` [Compound No. 50, 4-((5-(1,6-dimethyl-1H-pyrazolo[3,4-b]pyridin-4-yl)-3-methyl-4,5,6,7-tetrahydro-1H-pyrazolo[4,3-c]pyridin-1-yl)methyl)-N-methylbicyclo[2.2.2]octan-1-amine], with 6 nM; and `Cc1cc(N2CCc3c(c(C)nn3CC34CCC(N5CCOCC5)(CC3)CC4)C2)c2cnn(C)c2n1` [Compound No. 59, 4-(4-((5-(1,6-dimethyl-1H-pyrazolo[3,4-b]pyridin-4-yl)-3-methyl-4,5,6,7-tetrahydro-1H-pyrazolo[4,3-c]pyridin-1-yl)methyl)bicyclo[2.2.2]octan-1-yl)morpholine], with 4 nM. `Cc1cc(N2CCc3c(c(C)nn3CC34CCC(N5CCCC5)(CC3)CC4)C2)c2ccncc2n1` [compound 86, 2-methyl-4-(3-methyl-1-((4-(pyrrolidin-1-yl)bicyclo[2.2.2]octan-1-yl)methyl)-6,7-dihydro-1H-pyrazolo[4,3-c]pyridin-5(4H)-yl)-1,7-naphthyridine]: the IC50 came to 81 nM.

On to `Cc1cc(N2CCc3c(c(C)nn3CC34CCC(N(C)C(=O)OC(C)(C)C)(CC3)CC4)C2)c2cnn(C)c2n1` [Compound No. 49, tert-butyl (4-((5-(1,6-dimethyl-1H-pyrazolo[3,4-b]pyridin-4-yl)-3-methyl-4,5,6,7-tetrahydro-1H-pyrazolo[4,3-c]pyridin-1-yl)methyl)bicyclo[2.2.2]octan-1-yl)(methyl)carbamate], for which the IC50 worked out at 20 nM.

Take `Cc1cc(N2CCc3c(c(C)nn3CC34CCC(N)(CC3)CC4)C2)c2cn[nH]c2n1` [Compound No. 2, 4-((3-methyl-5-(6-methyl-1H-pyrazolo[3,4-b]pyridin-4-yl)-4,5,6,7-tetrahydro-1H-pyrazolo[4,3-c]pyridin-1-yl)methyl)bicyclo[2.2.2]octan-1-amine]: the half-inhibitory concentration (IC50) came out at 38 nM. Consider `Cc1nn(CC23CCC(N)(CC2)CC3)c2c1CN(c1ccnc(-c3ccc(C#N)cc3)c1)CC2` [Compound No. 84, 4-(4-(1-((4-aminobicyclo[2.2.2]octan-1-yl)methyl)-3-methyl-6,7-dihydro-1H-pyrazolo[4,3-c]pyridin-5(4H)-yl)pyridin-2-yl)benzonitrile], for which the IC50 amounted to 302 nM. Then `Cc1nn(CC23CCC(N4CCCC4)(CC2)CC3)c2c1CN(c1ccnc(-c3ccccc3)c1)CC2` [compound 85, 3-methyl-5-(2-phenylpyridin-4-yl)-1-((4-(pyrrolidin-1-yl)bicyclo[2.2.2]octan-1-yl)methyl)-4,5,6,7-tetrahydro-1H-pyrazolo[4,3-c]pyridine], with 46 nM; and `CCOCCN(CCOCC)C12CCC(Cn3nc(C)c4c3CCN(c3cc(C)nc5c3cnn5C)C4)(CC1)CC2` [compound 72, 4-((5-(1,6-dimethyl-1H-pyrazolo[3,4-b]pyridin-4-yl)-3-methyl-4,5,6,7-tetrahydro-1H-pyrazolo[4,3-c]pyridin-1-yl)methyl)-N,N-bis(2-ethoxyethyl)bicyclo[2.2.2]octan-1-amine], with 37 nM. For `Cc1cc(N2CCc3c(c(C)nn3CC34CCC(N(C)C5COC5)(CC3)CC4)C2)c2cnn(C)c2n1` [Compound No. 77, N-(4-((5-(1,6-dimethyl-1H-pyrazolo[3,4-b]pyridin-4-yl)-3-methyl-4,5,6,7-tetrahydro-1H-pyrazolo[4,3-c]pyridin-1-yl)methyl)bicyclo[2.2.2]octan-1-yl)-N-methyloxetan-3-amine], the half-maximal inhibitory concentration (IC50) turned out to be 10 nM.
